Key:
WT full length PAICS = WT full length PAICS (Homo sapiens (Human), UniProt P22234); assay: Biochemical assay to measure PAICS activity (Transcreener ADP2 FI); details: SAICAR synthetase reaction, ADP detection, 30 min pre-incubation
Excerpt: Biochemical Assay to Measure PAICS Activity
The biochemical assay was used to measure PAICS SAICAR synthetase-mediated conversion of CAIR, aspartic acid and ATP to SAICAR, ADP and inorganic phosphate (Pi), post-AIR/CAIR equilibration (see FIG. 3). This was achieved by detecting the ADP generated during the reaction, using Bellbrook Lab's Transcreener ADP^2 FI assay. An increase in the fluorescence intensity is directly proportional to the amount of PAICS activity.
The Transcreener ADP^2 FI assay is a homogeneous competitive displacement fluorescence intensity assay which uses direct immunodetection of ADP. Displacement of the tracer by ADP causes an increase in the fluorescence at excitation 590 nm and emission 617 nm (FIG. 3).
5 μl WT full length PAICS (final assay concentration, fac, 2.5 nM) in basic buffer, added to black, non-binding, 384-well plates (Corning #3575), columns 1 to 22. 5 μl basic buffer was added to columns 23+24 (negative control). PAICS stock at 31.9 μM from the PI's lab (Steve Firestine). Basic buffer contained 50 mM Tris-HCl pH8 and 0.5 mM EDTA, fac.
1 μl compound in 100% DMSO added per well, or 1 μl 100% DMSO to positive controls (columns 1+2) and negative controls (columns 23+24). Final assay top concentration of compound either 1 mM or 30-μM, serially diluted with half-log dilutions across the plate in duplicate (one 10-point concentration response curve across wells 3 to 12, another across 13 to 22). Compounds pre-incubated with PAICS enzyme for 30 mins at RT. 2 μl CAIR added (fac 10 μM) in basic buffer plus 25 mM MgCl2 and 50 mM KHCO3 fac to all wells. CAIR stock 50 mM from Steve Firestine's lab. 1 hr RT incubation for AIR-CAIR equilibration. NB: ˜50% CAIR is decarboxylated during equilibration therefore 5 μM remains for the synthetase reaction.
2 μl ATP/aspartic acid added (fac 30 μM/180 μM) in reaction buffer to all wells. 30 mins RT incubation for appropriate level of ATP turnover. Reaction buffer contained basic buffer plus 10 mM DTT, 0.01% BSA and 0.01% Brij 35, fac.
10 μl ADP detection reagent added to all wells (as per instructions, Transcreener ADP^2 FI kit, BellBrook Labs #3013-10K). Incubation for 1 h at RT to allow antibody equilibration. Fluorescence intensity determined using a Tecan Safire2 (excitation at 590 nm, emission at 617 nm).

[1] = test system: LM2 and MDA-MB-231 breast cancer cell lines; assay: PAICS 2D cell proliferation assay (CellTiter-Glo viability, 72 h); format: cell-based; details: Homo sapiens; 72 h incubation; cell line not given
Protocol: PAICS 2D Cell Proliferation Assay
Frozen cryovial stocks of LM2 and MDA-MB-231 breast cancer cell lines were thawed and cultured in 4.5 g/L glucose DMEM (31966-047, Invitrogen) supplemented with 10% Fetal Bovine Serum (10500-064, Invitrogen) until confluent in a T175 flask. Cells were incubated at 37° C. with 5% CO2 in a humidified incubator.
Cells were collected from T175 flasks by washing with PBS (10010-056, Invitrogen) and dissociated using Accutase (A6964, Sigma Aldrich). This was followed by centrifuging (1200 rpm, 5 min) and resuspending the cells in 10 ml of media containing 1% penicillin/streptomycin (15140-122, Invitrogen). Cells were counted by trypan blue exclusion method using an automated cell counter (Cellometer) and diluted to a concentration of 40,000/ml. 1000 cells were then seeded into 384-well white-walled plates (Corning, 3707) in a volume of 25 μl. Plates were Incubated overnight at 37° C. with 5% CO2.
After 24 hours, PAICS compounds were added onto the assay plates using an HP D300 Digital Dispenser (Hewlett Packard). 10 mM stocks were used and dispensed as a 10 point concentration response curve (CRC) ½ log dilution series with a final top concentration of 100 μM. Controls were added onto each plate: positive controls included Staurosporine CRC (100 μM stock dispensed as a 10 point CRC ½ log dilution series with a final top concentration of 1 μM) and PAICS compound MRT00211919 (10 mM stock dispensed as a 10 point CRC ½ log dilution series with a final top concentration of 100 μM); a high control of Staurosporine (0.1 μM (LM2), 0.316 μM (MDA-MB-231) FAC) and a low control of media containing 1% DMSO. A final concentration of 1% DMSO was then added across the plates for normalisation. Following compound addition, assay plates were incubated for 72 hours at 37° C. with 5% CO2.
Day 5—Cytotoxicity and Cell Viability Assays
After 72 h incubation, dead and viable cells were measured in each assay plate. Cytotoxicity was assessed through fluorescent DNA staining using the CellTox™ Green Cytotoxicity Assay kit (G8743, Promega) following the manufacturer's multiplexing protocol. Impaired cell membrane integrity results in the access of dye to stain DNA allowing quantification of dead cells. Cell viability was determined following ATP quantification using the CellTiter-Glo® Luminescent Cell Viability Assay kit (G7572, Promega) following the manufacturer's protocol. ATP released from lysed cells allowed for the generation of a signal proportional to the number of cells present in the well. All endpoint reads were performed using the PheraSTAR Plus (BMG Labtech). Data is expressed as % viable cells and % dead cells against controls (mean±SEM of duplicate curves).

Chain of WT full length PAICS (P22234 whole entry): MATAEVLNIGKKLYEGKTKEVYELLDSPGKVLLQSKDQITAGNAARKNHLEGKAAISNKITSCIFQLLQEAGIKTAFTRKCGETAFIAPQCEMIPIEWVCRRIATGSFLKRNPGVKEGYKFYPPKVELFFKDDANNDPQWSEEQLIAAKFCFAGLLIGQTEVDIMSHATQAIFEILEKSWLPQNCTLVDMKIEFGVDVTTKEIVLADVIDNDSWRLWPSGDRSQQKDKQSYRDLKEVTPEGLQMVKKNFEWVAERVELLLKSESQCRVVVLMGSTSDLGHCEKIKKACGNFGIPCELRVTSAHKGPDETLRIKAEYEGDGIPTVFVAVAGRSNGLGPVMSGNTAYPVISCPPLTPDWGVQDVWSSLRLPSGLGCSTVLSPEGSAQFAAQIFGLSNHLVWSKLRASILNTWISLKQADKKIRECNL

IC50 (WT full length PAICS)	EC50 [1]	Compound
> 100 nM	500 to 1000 nM	CN(C)CCCN1CCN(c2ccc(Cl)c(NC(=O)c3coc(N)n3)c2)CC1=O [Example 46, 2-Amino-N-(2-chloro-5-{4-[3-(dimethylamino)propyl]-3-oxopiperazin-1-yl}phenyl)-1,3-oxazole-4-carboxamide]
10 to 25 nM	500 to 1000 nM	CN1CC(COC(=O)N2CCN(c3ccc(Cl)c(NC(=O)c4coc(N)n4)c3)CC2)C1 [Example 20, (1-Methylazetidin-3-yl) methyl 4-(3-(2-aminooxazole-4-carboxamido)-4-chlorophenyl) piperazine-1-carboxylate]
10 to 25 nM	250 to 500 nM	CN1CCN(CCS(=O)(=O)N2CCN(c3ccc(Cl)c(NC(=O)c4coc(N)n4)c3)CC2)CC1 [Example 59, 2-Amino-N-[2-chloro-5-(4-{[2-(4-methylpiperazin-1-yl)ethyl]sulfonyl}piperazin-1-yl)phenyl]-1,3-oxazole-4-carboxamide]
< 10 nM	100 to 250 nM	Nc1nc(C(=O)Nc2cc(N3CCN(S(=O)(=O)C4CCNCC4)CC3)ccc2Br)co1 [Example 84]
10 to 25 nM	100 to 250 nM	CCCNCCS(=O)(=O)N1CCN(c2ccc(Cl)c(NC(=O)c3coc(N)n3)c2)CC1 [Example 66, 2-Amino-N-[2-chloro-5-(4-{[2-(propylamino)ethyl]sulfonyl}piperazin-1-yl)phenyl]-1,3-oxazole-4-carboxamide]
10 to 25 nM	100 to 250 nM	CCNCCS(=O)(=O)N1CCN(c2ccc(Cl)c(NC(=O)c3coc(N)n3)c2)CC1 [Example 65, 2-Amino-N-[2-chloro-5-(4-{[2-(ethylamino)ethyl]sulfonyl}piperazin-1-yl)phenyl]-1,3-oxazole-4-carboxamide]
< 10 nM	100 to 250 nM	CNCCCS(=O)(=O)N1CCN(c2ccc(Br)c(NC(=O)c3coc(N)n3)c2)CC1 [Example 75, 2-Amino-N-[2-bromo-5-(4-{[3-(methylamino)propyl]sulfonyl}piperazin-1-yl)phenyl]-1,3-oxazole-4-carboxamide]
< 10 nM	100 to 250 nM	CN1CCC(NCCS(=O)(=O)N2CCN(c3ccc(Br)c(NC(=O)c4coc(N)n4)c3)CC2)CC1 [Example 64, 2-Amino-N-{2-bromo-5-[4-({2-[(1-methylpiperidin-4-yl)amino]ethyl}sulfonyl)piperazin-1-yl]phenyl}-1,3-oxazole-4-carboxamide]
25 to 100 nM	500 to 1000 nM	CN1CC(OC(=O)N2CCN(c3ccc(Cl)c(NC(=O)c4coc(N)n4)c3)CC2)C1 [Example 34, 1-Methylazetidin-3-yl 4-(3-{[(2-amino-1,3-oxazol-4-yl)carbonyl]amino}-4-chlorophenyl)piperazine-1-carboxylate]
10 to 25 nM	100 to 250 nM	CC(C)NCCS(=O)(=O)N1CCN(c2ccc(Cl)c(NC(=O)c3coc(N)n3)c2)CC1 [Example 61, 2-Amino-N-[2-chloro-5-(4-{[2-(propan-2-ylamino)ethyl]sulfonyl}piperazin-1-yl)phenyl]-1,3-oxazole-4-carboxamide]
< 10 nM	< 100 nM	CC(C)NCCCS(=O)(=O)N1CCN(c2ccc(Br)c(NC(=O)c3coc(N)n3)c2)CC1 [Example 76, 2-Amino-N-[2-bromo-5-(4-{[3-(propan-2-ylamino)propyl]sulfonyl}piperazin-1-yl)phenyl]-1,3-oxazole-4-carboxamide]
25 to 100 nM	500 to 1000 nM	CNCCOC(=O)N1CCN(c2ccc(Cl)c(NC(=O)c3coc(N)n3)c2)CC1 [Example 31, 2-(Methylamino)ethyl 4-(3-{[(2-amino-1,3-oxazol-4-yl)carbonyl]amino}4-chlorophenyl)piperazine-1-carboxylate]
< 10 nM	< 100 nM	Nc1nc(C(=O)Nc2cc(N3CCN(S(=O)(=O)CCCN4CCCC4)CC3)ccc2Br)co1 [Example 67, 2-Amino-N-[2-bromo-5-(4-{[3-(pyrrolidin-1-yl)propyl]sulfonyl}piperazin-1-yl)phenyl]-1,3-oxazole-4-carboxamide]
